The structures appear in SMILES notation.

In general, IC50 refers to the point on the concentration scale where inhibition reaches its midpoint. Read a high IC50 as a need for much substance.

Sequence of Insulin-like growth factor 1 receptor (P08069 31-736 limits assumed): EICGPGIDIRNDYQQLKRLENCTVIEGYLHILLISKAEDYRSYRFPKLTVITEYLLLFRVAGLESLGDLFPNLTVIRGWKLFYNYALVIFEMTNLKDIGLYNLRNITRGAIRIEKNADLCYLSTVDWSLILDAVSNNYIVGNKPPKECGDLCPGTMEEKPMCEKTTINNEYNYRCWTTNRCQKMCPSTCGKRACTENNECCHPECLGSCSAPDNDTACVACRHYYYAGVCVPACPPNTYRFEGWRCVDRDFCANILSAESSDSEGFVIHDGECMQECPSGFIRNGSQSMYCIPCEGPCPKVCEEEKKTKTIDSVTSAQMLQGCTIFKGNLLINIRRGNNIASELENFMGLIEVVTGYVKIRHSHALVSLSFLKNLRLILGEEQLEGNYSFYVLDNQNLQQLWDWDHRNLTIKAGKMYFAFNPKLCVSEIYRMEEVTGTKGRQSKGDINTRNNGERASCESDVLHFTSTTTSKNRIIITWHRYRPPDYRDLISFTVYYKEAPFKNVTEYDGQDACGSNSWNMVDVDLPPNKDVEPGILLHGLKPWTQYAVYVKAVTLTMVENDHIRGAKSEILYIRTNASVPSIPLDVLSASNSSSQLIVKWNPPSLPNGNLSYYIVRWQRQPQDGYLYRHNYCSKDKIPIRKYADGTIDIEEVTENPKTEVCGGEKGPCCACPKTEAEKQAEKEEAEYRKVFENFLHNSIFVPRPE
Sequence of Insulin-like growth factor 1 receptor (P08069 741-1367 limits assumed): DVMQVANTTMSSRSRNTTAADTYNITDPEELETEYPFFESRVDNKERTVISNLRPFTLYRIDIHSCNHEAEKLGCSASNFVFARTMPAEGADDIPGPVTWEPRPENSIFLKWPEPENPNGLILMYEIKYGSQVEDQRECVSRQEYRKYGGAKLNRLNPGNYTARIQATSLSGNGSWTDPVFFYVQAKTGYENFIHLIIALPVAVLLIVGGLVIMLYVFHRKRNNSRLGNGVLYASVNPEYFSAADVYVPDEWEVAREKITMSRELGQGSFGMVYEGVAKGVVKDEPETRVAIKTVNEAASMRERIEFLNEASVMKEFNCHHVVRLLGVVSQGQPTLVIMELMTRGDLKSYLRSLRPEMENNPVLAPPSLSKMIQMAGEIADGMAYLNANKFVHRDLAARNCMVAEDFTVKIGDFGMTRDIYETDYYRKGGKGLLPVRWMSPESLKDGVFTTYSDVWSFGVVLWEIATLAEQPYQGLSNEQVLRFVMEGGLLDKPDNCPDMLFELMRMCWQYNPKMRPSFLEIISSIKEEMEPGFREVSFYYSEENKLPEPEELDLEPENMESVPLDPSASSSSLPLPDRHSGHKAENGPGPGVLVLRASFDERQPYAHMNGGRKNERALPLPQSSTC

The assay addresses Insulin-like growth factor 1 receptor (Homo sapiens, UniProt P08069). In words: Biologic and Pharmacologic Assay. On the procedure: The media was removed and replaced by 50 μL of 1× lysis buffer from the AlphaLISA kit (with 1× of cOmplete™ protease inhibitor). The plates were sealed, and cells were allowed to lyse for 10 min in the shaker before storing the plate at −20° C. until used. The AlphaLISA assay with processed cell lysates were performed as described in the protocol. Briefly, 10 μL of the undiluted sample were loaded to 384 well Optiplates and 5 μL of the acceptor mix (as described in the AlphaLISA kit) was added to each well. The plates were sealed and briefly vortexed followed by the incubation at RT for 3 hours. In the dark, 5 μL of donor mix was added to each well. All plates were sealed and stored at RT overnight. The plates were read in EnVision reader using standard AlphaLISA settings.Compound activity was analyzed using CBIS data analysis suite (ChemInnovation, CA).
`COc1cc(Nc2nccc(Nc3cnc4ccccc4c3)n2)ccc1N1CCC(N2CCCCC2)CC1` [US20250171431, Compound 1] came in with an IC50 below 0.5 µM. The figure for `COc1cc(Nc2nccc(Nc3cnc4cncc(F)c4c3)n2)cnc1O[C@H]1C[C@@H](N(C)C)C1` [US20250171431, Compound 88] is below 0.5 µM; for `COc1cc(N2CCN(C)CC2)ncc1Nc1nccc(Nc2cc3cccc(F)c3nc2O)n1` [US20250171431, Compound 91] it is below 0.5 µM; for `COc1cc(Nc2nccc(Nc3cnc4ccccc4c3)n2)ccc1N1CCC(N(C)C)CC1` [US20250171431, Compound 95] it is below 0.5 µM. The figure for `COc1cc(Nc2nccc(Nc3cc4c(F)cccc4[nH]c3=O)n2)ccc1O[C@H]1C[C@@H](N(C)C)C1` [US20250171431, Compound 123] is below 0.5 µM; for `COc1cc(Nc2nccc(Nc3ccc(C4CC4)nc3C(N)=O)n2)ccc1O[C@H]1C[C@@H](N(C)C)C1` [US20250171431, Compound 124] it is below 0.5 µM. Next, `COc1cc(Nc2nccc(Nc3cc(F)c4ncc(Br)cc4c3)n2)ccc1O[C@H]1C[C@@H](N(C)C)C1` [US20250171431, Compound 133]: below 0.5 µM; `COc1cc(Nc2nccc(Nc3ccc4ncc(Cl)nc4c3)n2)ccc1O[C@H]1C[C@@H](N(C)C)C1` [US20250171431, Compound 134]: below 0.5 µM. Take `COc1cc(Nc2nccc(Nc3cc4cccc(F)c4[nH]c3=O)n2)cnc1N1CCC(N(C)C)CC1` [US20250171431, Compound 164]: the IC50 is below 0.5 µM. The figure for `COc1cc(Nc2nccc(Nc3cc4cccc(F)c4[nH]c3=O)n2)ccc1C1CCNCC1(F)F` (stereo not given) [US20250171431, Compound 208] is below 0.5 µM; for `COc1cc(C2CCNCC2(F)F)ccc1Nc1nccc(Nc2cc3cccc(F)c3[nH]c2=O)n1` (stereo not given) [US20250171431, Compound 222] it is below 0.5 µM. Compound `COc1cc(Nc2nccc(Nc3cc4cc(Cl)ccc4[nH]c3=O)n2)ccc1O[C@H]1CC[C@@H](N(C)C)CC1` [US20250171431, Compound 247] yielded an IC50 below 0.5 µM.

For the compound `COc1cc(Nc2nccc(Nc3cc4cccc(F)c4nc3O)n2)cnc1O[C@@H]1C[C@H](N(C)C)C1(C)C` [US20250171431, Compound 253], the IC50 was above 10 µM. Next, `COc1cc(Nc2nccc(Nc3cc4ccccc4nc3C#N)n2)cnc1O[C@H]1C[C@@H](N(C)C)C1` [US20250171431, Compound 269]: above 10 µM; `COc1cc(Nc2nccc(Nc3cnc4c(c3)OC(C)(C)C(=O)N4)n2)ccc1O[C@H]1C[C@@H](N(C)C)C1` [US20250171431, Compound 288]: 0.5 to 2 µM. The figure for `O=S1(=O)CCN([C@H]2CC[C@@H](Oc3ccc(Nc4nccc(Nc5cnc6ccc(Cl)cc6c5)n4)cc3)CC2)CC1` [US20250171431, Compound 309] is below 0.5 µM. The figure for `COc1cc(Nc2nccc(Nc3cnc4c(Cl)cccc4c3)n2)ccc1O[C@H]1C[C@@H](N(C)C)C1` [US20250171431, Compound 344] is below 0.5 µM; for `COc1cc(Nc2nccc(Nc3cnc4ccc(C#N)cc4c3)n2)ccc1OCCCN1CCCCC1` [US20250171431, Compound 392] it is below 0.5 µM; for `COc1cc(Nc2nccc(Nc3cnc4cc(Cl)ccc4c3)n2)ccc1OCCCN1CCCCC1` [US20250171431, Compound 428] it is below 0.5 µM. `COc1cc(Nc2nccc(Nc3cnc4ccc(Cl)cc4c3)n2)cnc1N1CCNC(C(F)F)C1` (stereo not given) [US20250171431, Compound 483]: the IC50 is below 0.5 µM.

The record behind these values is BindingDB's records for patent US20250171431 (Horizon Therapeutics Ireland Dac, 2025).
